Test results reported in ChEMBL document CHEMBL5120844, “Discovery of novel non-steroidal selective glucocorticoid receptor modulators by structure- and IGN-based virtual screening, structural optimization, and biological evaluation” (Eur J Med Chem, 2022).
One block for each compound: values may come before it. Active and inactive are the calls of the source. No cut-off for these calls is given here.

Experiments:
HeLa = assay: Inhibition of NF-kappaB transcriptional activity in human HeLa cells transfected with NF-kappaB-Luc at 10 uM by dual-luciferase reporter gene assay relative to control; assay type: cell-based
MG-63 [1] = assay: Induction of osteoporosis in human MG-63 cells assessed as decrease in RANKL mRNA expression level at 10 uM by qRT-PCR analysis; assay type: functional, cell-based
RAW264.7 [2] = assay: Anti-inflammatory activity against mouse RAW264.7 cells assessed as reduction in LPS-induced […] mRNA expression level preincubated for 1 hr followed by LPS addition and measured after 16 hrs by qRT-PCR analysis; assay type: functional, cell-based; conditions: time 17.0 hrs
MG-63 [3] = assay: Induction of osteoporosis in human MG-63 cells assessed as decrease in OPG mRNA expression level at 10 uM by qRT-PCR analysis; assay type: functional, cell-based
RAW264.7 [4] = assay: Anti-inflammatory activity against mouse RAW264.7 cells assessed as inhibition of LPS-induced NO production at 25 uM incubated for 16 hrs by Greiss reagent assay; assay type: functional, cell-based
RAW264.7 [5] = assay: Anti-inflammatory activity against mouse RAW264.7 cells assessed as reduction in LPS-induced IL-1beta mRNA expression level preincubated for 1 hr followed by LPS addition and measured after 16 hrs by qRT-PCR analysis; assay type: functional, cell-based; conditions: time 17.0 hrs
[6] = biological target: T1, Mineralocorticoid receptor (Homo sapiens) (UniProt P08235); assay: Agonist activity at mineralocorticoid receptor (unknown origin) expressed in HEK293T cells co-transfected with pGL4.36[luc2P MMTV Hygro]/Renilla at 10 to 25 uM incubated for 16 hrs by luciferase reporter gene assay; assay type: cell-based; conditions: filed as agonist, dose 10-25 µM
T1 sequence (whole entry): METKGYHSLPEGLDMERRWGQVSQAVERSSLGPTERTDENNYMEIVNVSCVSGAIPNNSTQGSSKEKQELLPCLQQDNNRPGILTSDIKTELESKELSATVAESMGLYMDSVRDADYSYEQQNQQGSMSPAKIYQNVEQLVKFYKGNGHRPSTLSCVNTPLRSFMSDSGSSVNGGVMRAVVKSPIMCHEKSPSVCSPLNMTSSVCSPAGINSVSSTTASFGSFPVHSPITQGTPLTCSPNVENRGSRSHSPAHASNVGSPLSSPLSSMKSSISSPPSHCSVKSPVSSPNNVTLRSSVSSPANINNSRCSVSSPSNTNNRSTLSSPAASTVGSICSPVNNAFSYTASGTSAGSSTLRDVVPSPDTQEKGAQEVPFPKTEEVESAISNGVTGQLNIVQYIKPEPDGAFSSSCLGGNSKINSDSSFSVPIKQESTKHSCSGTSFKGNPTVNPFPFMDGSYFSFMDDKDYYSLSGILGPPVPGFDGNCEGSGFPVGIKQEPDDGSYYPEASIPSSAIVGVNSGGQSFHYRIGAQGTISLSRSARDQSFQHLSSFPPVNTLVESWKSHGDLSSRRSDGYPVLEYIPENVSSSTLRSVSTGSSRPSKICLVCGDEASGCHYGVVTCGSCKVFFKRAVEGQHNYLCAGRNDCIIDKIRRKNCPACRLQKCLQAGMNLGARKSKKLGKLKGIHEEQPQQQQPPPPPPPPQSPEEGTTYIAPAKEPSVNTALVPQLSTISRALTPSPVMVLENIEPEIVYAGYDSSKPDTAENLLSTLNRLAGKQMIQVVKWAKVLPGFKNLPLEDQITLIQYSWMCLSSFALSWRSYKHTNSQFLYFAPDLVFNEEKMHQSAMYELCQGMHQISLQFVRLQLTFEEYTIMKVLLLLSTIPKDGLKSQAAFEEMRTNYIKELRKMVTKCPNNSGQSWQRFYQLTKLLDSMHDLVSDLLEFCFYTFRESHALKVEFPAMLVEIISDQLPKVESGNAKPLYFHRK

[7] = biological target: T2, Progesterone receptor (Homo sapiens) (UniProt P06401); assay: Agonist activity at progesterone receptor (unknown origin) expressed in PC3 cells co-transfected with ARR3tk-luciferase/Renilla at 10 to 25 uM incubated for 16 hrs by luciferase reporter gene assay; assay type: cell-based; conditions: PC-3, filed as agonist, dose 10-25 µM
T2 sequence (whole entry): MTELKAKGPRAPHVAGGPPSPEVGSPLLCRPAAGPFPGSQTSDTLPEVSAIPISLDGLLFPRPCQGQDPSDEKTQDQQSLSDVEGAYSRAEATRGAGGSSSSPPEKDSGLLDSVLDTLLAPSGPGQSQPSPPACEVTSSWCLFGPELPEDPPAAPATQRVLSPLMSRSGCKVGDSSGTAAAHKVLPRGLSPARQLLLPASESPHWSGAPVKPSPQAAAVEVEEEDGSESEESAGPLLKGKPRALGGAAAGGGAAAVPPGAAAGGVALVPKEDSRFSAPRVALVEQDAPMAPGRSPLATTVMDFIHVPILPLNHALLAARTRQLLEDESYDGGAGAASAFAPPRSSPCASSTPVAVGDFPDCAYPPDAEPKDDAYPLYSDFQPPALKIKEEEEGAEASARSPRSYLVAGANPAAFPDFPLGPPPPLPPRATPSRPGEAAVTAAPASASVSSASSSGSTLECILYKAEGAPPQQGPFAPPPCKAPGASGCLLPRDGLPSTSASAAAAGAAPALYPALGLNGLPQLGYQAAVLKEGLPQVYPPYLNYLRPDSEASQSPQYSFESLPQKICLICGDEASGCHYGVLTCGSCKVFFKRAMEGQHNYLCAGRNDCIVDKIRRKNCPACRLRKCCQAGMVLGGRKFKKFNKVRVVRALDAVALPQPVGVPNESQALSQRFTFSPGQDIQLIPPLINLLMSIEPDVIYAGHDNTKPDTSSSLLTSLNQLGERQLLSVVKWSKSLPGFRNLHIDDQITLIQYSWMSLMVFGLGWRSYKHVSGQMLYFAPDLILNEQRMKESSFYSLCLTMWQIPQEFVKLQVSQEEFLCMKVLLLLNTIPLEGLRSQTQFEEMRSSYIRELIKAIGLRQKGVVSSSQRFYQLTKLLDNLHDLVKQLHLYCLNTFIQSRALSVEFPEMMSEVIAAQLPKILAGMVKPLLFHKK

A549 = assay: Anti-inflammatory activity against human A549 cells assessed as reduction in TNFalpha induced IL-1beta mRNA expression level by qRT-PCR analysis; assay type: functional, cell-based
[8] = Inhibition of NF-kappaB transcriptional activity in human HeLa cells transfected with NF-kappaB-Luc by dual-luciferase reporter gene assay; assay type: cell-based
RAW264.7 [9] = assay: Anti-inflammatory activity against mouse RAW264.7 cells assessed as reduction in LPS-induced IL-6 mRNA expression level preincubated for 1 hr followed by LPS addition and measured after 16 hrs by qRT-PCR analysis; assay type: functional, cell-based; conditions: time 17.0 hrs
RAW264.7 [10] = assay: Anti-inflammatory activity against mouse RAW264.7 cells assessed as reduction in LPS-induced COX-2 mRNA expression level preincubated for 1 hr followed by LPS addition and measured after 16 hrs by qRT-PCR analysis; assay type: functional, cell-based; conditions: time 17.0 hrs
NIH3T3 = assay: Cytotoxicity against mouse 3T3 cells assessed as reduction in cell viability after 24 hrs by MTT assay; assay type: toxicity, cell-based; conditions: nih3t3, 24 h
[11] = biological target: T3, Glucocorticoid receptor (Homo sapiens) (UniProt P04150); assay: (§1) Binding affinity to recombinant human GST-tagged glucocorticoid receptor ligand binding domain by TR-FRET assay relative to control; conditions: filed as modulator, DDE = dose-dependent effect
T3 sequence (whole entry): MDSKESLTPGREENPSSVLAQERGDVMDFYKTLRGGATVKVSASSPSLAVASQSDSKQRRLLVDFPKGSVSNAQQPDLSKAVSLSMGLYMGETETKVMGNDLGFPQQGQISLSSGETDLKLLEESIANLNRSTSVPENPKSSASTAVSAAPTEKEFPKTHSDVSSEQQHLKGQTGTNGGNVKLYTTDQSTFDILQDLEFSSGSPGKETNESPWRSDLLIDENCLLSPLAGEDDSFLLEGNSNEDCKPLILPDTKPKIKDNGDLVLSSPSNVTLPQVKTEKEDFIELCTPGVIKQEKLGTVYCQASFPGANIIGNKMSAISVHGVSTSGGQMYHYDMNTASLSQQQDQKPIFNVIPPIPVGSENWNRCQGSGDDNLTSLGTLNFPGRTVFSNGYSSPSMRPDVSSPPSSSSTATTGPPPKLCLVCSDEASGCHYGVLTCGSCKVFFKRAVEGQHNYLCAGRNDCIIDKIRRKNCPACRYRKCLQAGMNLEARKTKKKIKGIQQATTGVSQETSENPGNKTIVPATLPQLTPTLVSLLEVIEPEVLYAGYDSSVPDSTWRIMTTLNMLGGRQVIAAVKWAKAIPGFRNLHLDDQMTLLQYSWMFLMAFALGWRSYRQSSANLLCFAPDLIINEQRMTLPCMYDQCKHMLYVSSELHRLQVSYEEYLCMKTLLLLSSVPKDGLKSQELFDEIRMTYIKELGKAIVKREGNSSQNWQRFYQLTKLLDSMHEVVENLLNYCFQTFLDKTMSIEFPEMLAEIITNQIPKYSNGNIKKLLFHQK

Glucocorticoid receptor = biological target: T4, Glucocorticoid receptor (Homo sapiens, UniProt P04150); assay: as §1
T4 sequence (P04150 whole entry): T3 sequence (whole entry)

[12] = biological target: T3, Glucocorticoid receptor (Homo sapiens); assay: Binding affinity to recombinant human GST-tagged glucocorticoid receptor ligand binding domain at 10 uM by TR-FRET assay relative to control; conditions: filed as modulator
RAW264.7 [13] = assay: Cytotoxicity against mouse RAW264.7 cells assessed as reduction in cell viability at 25 uM incubated for 48 hrs by MTT assay; assay type: toxicity, cell-based; conditions: raw264.7, 48 h

Compound: Cn1c(=O)n(C)c2cc(NC(=O)c3ccc(CN4CCc5ccccc5C4)cc3)ccc21
inhibition (HeLa): 10.6%

Compound: CC(NC(=O)c1ccc(CN2CC(=O)N3CSC[C@@H]3C2=O)cc1)c1ccccc1 (some centres not stated)
inhibition (HeLa): 34.1%

Compound: O=C(c1ccc2c(=O)n(Cc3ccc(Cl)cc3)c(=S)[nH]c2c1)N(CCO)Cc1ccccc1
inhibition (HeLa): 75.8%

Compound: O=C(NCc1cccnc1)c1ccc(Cn2c(=S)[nH]c3ccsc3c2=O)cc1
inhibition (HeLa): 76%

Compound: C[C@@H]1C[C@H]2[C@@H]3CCC4=CC(=O)C=C[C@]4(C)[C@@]3(F)[C@@H](O)C[C@]2(C)[C@@]1(O)C(=O)CO
Activity (MG-63 [1]): Non-Toxic
Activity (RAW264.7 [2]): Active
Activity (MG-63 [3]): Toxic
inhibition (RAW264.7 [4]): Active
Activity (RAW264.7 [5]): Active
Activity [6]: Active
Activity [7]: Active
Activity (A549): Active

Compound: Cc1ccc(S(=O)(=O)NCc2ccc(C(=O)NC(C)c3ccccc3)cc2)cc1 (configuration not stated)
inhibition (HeLa): 51.3%

Compound: CC(NC(=O)c1ccc(CN2CCc3ccccc3C2)cc1)c1ccccc1 (configuration not stated)
inhibition (HeLa): 49.1%

Compound: O=C(c1ccc(Cn2c(=S)[nH]c3ccc(Br)cc3c2=O)cc1)N1CCN(c2cccc(Cl)c2)CC1
inhibition (HeLa): 54.1%

Compound: CC(C)[C@H](NC(=O)C(C)(F)F)[C@H](Oc1ccc2c(cnn2-c2ccc(=O)n(C)c2)c1)c1ccccc1
Activity (MG-63 [1]): Non-Toxic
Activity (MG-63 [3]): Toxic

Continued, in another order:

IC50 [8]: 6.61 µM
Compound: O=C(Nc1ccccc1C(=O)NCc1cccnc1)c1ccc(CN2CCc3ccccc3C2)cc1
inhibition (HeLa): 89%

IC50 [8]: 7.38 µM
Compound: COc1ccc(CNC(=O)c2ccc(Cn3c(=S)[nH]c4ccsc4c3=O)cc2)cc1
inhibition (HeLa): 93.1%

IC50 [8]: 0.99 µM
Compound: O=C(c1ccc(Cn2c(=S)[nH]c3ccsc3c2=O)cc1)N1CCc2ccccc2C1
inhibition (HeLa): 106%

IC50 [8]: 1.92 µM
Compound: C[C@H](NC(=O)c1ccc(Cn2c(=S)[nH]c3ccsc3c2=O)cc1)c1ccccc1
Activity (RAW264.7 [9]): Active
Activity (RAW264.7 [10]): Active
Activity (NIH3T3): Non-Toxic
Activity (RAW264.7 [5]): Active

Activity [11]: Dde
IC50 (Glucocorticoid receptor): 2.05 µM
Activity [12]: < 60%
IC50 [8]: 2.32 µM
Compound: CC(NC(=O)c1ccc(Cn2c(=S)[nH]c3ccsc3c2=O)cc1)c1ccccc1 (configuration not stated)
Activity (RAW264.7 [9]): Active
Activity (MG-63 [1]): Non-Toxic
Activity (RAW264.7 [10]): Active
Activity (RAW264.7 [13]): Non-Toxic
inhibition (HeLa): 86.9%
Activity (MG-63 [3]): Toxic
inhibition (RAW264.7 [4]): Active
Activity (RAW264.7 [5]): Active
Activity (A549): Active

IC50 [8]: 18.3 µM
Compound: CC(NC(=O)c1ccc(/C=C2/Sc3ccccc3NC2=O)cc1)c1ccc2c(c1)OCCO2 (configuration not stated)
inhibition (HeLa): 67%

IC50 [8]: 3.8 µM
Compound: C[C@@H](NC(=O)c1ccc(Cn2c(=S)[nH]c3ccsc3c2=O)cc1)c1ccccc1
Activity (RAW264.7 [9]): Active
Activity (RAW264.7 [10]): Active
Activity (NIH3T3): Non-Toxic
Activity (RAW264.7 [5]): Active

IC50 [8]: 1.07 µM
Compound: COc1ccccc1Nc1nc(C(=O)N(CC(=O)NC2CC2)Cc2ccccc2)cs1
inhibition (HeLa): 99.9%

IC50 [8]: 5.14 µM
Compound: CC(NC(=O)c1ccc(Cn2c(=S)[nH]c3ccsc3c2=O)cc1)c1ccc2c(c1)OCO2 (configuration not stated)
inhibition (HeLa): 94.6%
